The values that follow come from BindingDB's records for patent US10550100 (GALAPAGOS NV, 2020).

For orientation: IC50 means the concentration that gives 50% inhibition. A lower IC50 goes with greater potency in that assay.

In the experiment the target is T1, A disintegrin and metalloproteinase with thrombospondin motifs 6 (Human, UniProt Q9UKP5).
T1 sequence (Q9UKP5 whole entry): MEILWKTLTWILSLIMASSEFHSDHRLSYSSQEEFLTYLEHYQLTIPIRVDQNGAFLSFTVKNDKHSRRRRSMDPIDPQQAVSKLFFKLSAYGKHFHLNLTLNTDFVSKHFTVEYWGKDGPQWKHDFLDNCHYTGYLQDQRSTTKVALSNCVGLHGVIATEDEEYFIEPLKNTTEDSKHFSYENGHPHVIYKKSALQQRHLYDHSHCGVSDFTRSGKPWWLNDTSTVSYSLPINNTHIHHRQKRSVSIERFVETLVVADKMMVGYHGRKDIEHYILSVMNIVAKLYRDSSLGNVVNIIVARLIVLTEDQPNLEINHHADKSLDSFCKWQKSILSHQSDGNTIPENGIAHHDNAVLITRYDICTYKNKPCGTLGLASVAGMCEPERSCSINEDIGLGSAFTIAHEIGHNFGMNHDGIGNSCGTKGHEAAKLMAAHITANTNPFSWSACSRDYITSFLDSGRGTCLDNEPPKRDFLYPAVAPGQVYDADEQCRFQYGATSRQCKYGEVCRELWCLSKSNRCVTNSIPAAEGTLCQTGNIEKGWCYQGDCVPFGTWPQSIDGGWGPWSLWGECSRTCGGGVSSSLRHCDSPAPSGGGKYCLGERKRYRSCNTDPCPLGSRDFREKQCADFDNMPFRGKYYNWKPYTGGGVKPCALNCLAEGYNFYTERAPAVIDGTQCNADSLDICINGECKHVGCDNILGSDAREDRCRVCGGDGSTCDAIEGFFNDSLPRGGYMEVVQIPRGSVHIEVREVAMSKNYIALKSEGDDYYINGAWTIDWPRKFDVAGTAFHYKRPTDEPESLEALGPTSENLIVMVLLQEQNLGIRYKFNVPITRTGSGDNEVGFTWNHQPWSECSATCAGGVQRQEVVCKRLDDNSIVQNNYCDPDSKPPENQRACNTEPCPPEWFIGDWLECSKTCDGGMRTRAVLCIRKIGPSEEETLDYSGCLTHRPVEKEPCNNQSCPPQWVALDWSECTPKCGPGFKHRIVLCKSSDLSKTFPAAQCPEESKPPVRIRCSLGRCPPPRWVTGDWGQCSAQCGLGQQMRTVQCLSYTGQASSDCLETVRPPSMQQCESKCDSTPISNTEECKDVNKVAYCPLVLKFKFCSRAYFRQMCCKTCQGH
Briefly: hADAMTS-6 Assay. How it is done: Without ADAMTS6, the emission of the probe is quenched. If the substrate is cleaved by ADAMTS6, the emission of the probe is not quenched anymore. […] The reaction is started by addition of 10 μL of 1 μM 520 MMP FRET Substrate XII (final concentration, diluted in same buffer as described above) and the mixture is incubated at 37° C. for 2 h. […] After this incubation, cleavage of the substrate is measured using the Envision (Perkin Elmer, exc485/em530).

`COc1c(Cl)cc(Cl)cc1C1CCN(C(=O)CC[C@H]2NC(=O)NC2=O)CC1` [US10550100, Compound 70] returned an IC50 of more than 100 nM.
